Activity calls are given as the source filed them. The rule behind the calls is not given here.
Assays:
MGC-803 [1] = test: Induction of cell cycle arrest in human MGC-803 cells assessed as accumulation of cells at G2/M phase at 4 uM incubated for 36 hrs by PI staining based flow cytometry analysis (reference value: 20.5%); assay type: functional
MGC-803 [2] = test: Induction of cell cycle arrest in human MGC-803 cells assessed as accumulation of cells at G2/M phase at 2 uM incubated for 36 hrs by PI staining based flow cytometry analysis (reference value: 20.5%); assay type: functional
HGC-27 [3] = test: Induction of cell cycle arrest in human HGC-27 cells assessed as accumulation of cells at S phase at 4 uM incubated for 36 hrs by PI staining based flow cytometry analysis (reference value: 8.87%); assay type: functional
HGC-27 [4] = test: Induction of cell cycle arrest in human HGC-27 cells assessed as accumulation of cells at S phase at 1 uM incubated for 36 hrs by PI staining based flow cytometry analysis (reference value: 8.87%); assay type: functional
HGC-27 [5] = test: Activation of ROS/JNK signalling in human HGC-27 cells assessed as increase in p-ASK1 level by Western blot analysis; assay type: cell-based; conditions: filed as activator, dose 1-4 µM, DDE = dose-dependent effect
HGC-27 [6] = test: Induction of apoptosis in human HGC-27 cells assessed as increase in bax/bcl-2 expression level at 1 to 4 uM incubated for 48 hrs by Western blot analysis; assay type: functional, cell-based; conditions: dose 1-4 µM
MGC-803 [7] = test: Induction of cell cycle arrest in human MGC-803 cells assessed as accumulation of cells at G1 phase at 2 uM incubated for 36 hrs by PI staining based flow cytometry analysis (reference value: 45.8%); assay type: functional
HGC-27 [8] = test: Induction of cell cycle arrest in human HGC-27 cells assessed as accumulation of cells at G1 phase at 4 uM incubated for 36 hrs by PI staining based flow cytometry analysis (reference value: 49.6%); assay type: functional
MGC-803 [9] = test: Induction of cell cycle arrest in human MGC-803 cells assessed as accumulation of cells at G1 phase at 4 uM incubated for 36 hrs by PI staining based flow cytometry analysis (reference value: 45.8%); assay type: functional
HeLa = test: Antiproliferative activity against human HeLa cells assessed as inhibition of cell growth by SRB assay; assay type: functional, cell-based
[10] = Toxicity in BALB/c mouse xenografted with human MGC-803 cells assessed as effect on body weight at 10 to 20 mg/kg, ip administered once every two days; assay type: organism-based; conditions: in vivo, dose 10-20 mg/kg
HGC-27 [11] = test: Induction of DNA damage in human HGC-27 cells assessed as increase in gamma-H2AX generation incubated for 48 hrs by Western blot analysis; assay type: functional, cell-based; conditions: DDE = dose-dependent effect
HGC-27 [12] = test: Induction of apoptosis in human HGC-27 cells assessed as increase in cleaved caspase 3 protein expression level at 1 to 4 uM incubated for 48 hrs by Western blot analysis; assay type: functional, cell-based; conditions: dose 1-4 µM
[13] = Toxicity in BALB/c mouse xenografted with human MGC-803 cells assessed as effect on uric acid level at 10 to 20 mg/kg, ip administered once every two days; assay type: organism-based; conditions: in vivo, dose 10-20 mg/kg
HGC-27 [14] = test: Induction of ROS generation in human HGC-27 cells at 1 to 4 uM incubated for 24 hrs by flow cytometry analysis; assay type: functional, cell-based; conditions: dose 1-4 µM
HGC-27 [15] = test: Induction of apoptosis in human HGC-27 cells assessed as decrease in caspase 3 protein expression level at 1 to 4 uM incubated for 48 hrs by Western blot analysis; assay type: functional, cell-based; conditions: dose 1-4 µM
HGC-27 [16] = test: Induction of mitochondrial membrane depolarization in human HGC-27 cells incubated for 48 hrs by flow cytometry analysis; assay type: functional, cell-based; conditions: dose 1-4 µM, DDE = dose-dependent effect
MGC-803 [17] = test: Antitumor activity against human MGC-803 cells xenografted with BALB/c mouse assessed as reduction in tumor weight at 10 to 20 mg/kg, ip administered once every two days; assay type: functional, organism-based; conditions: dose 10-20 mg/kg
MGC-803 [18] = test: Antiproliferative activity against human MGC-803 cells assessed as inhibition of cell growth by SRB assay; assay type: functional, cell-based
HGC-27 [19] = test: Induction of cell cycle arrest in human HGC-27 cells assessed as accumulation of cells at S phase at 2 uM incubated for 36 hrs by PI staining based flow cytometry analysis (reference value: 8.87%); assay type: functional
MGC-803 [20] = test: Induction of cell cycle arrest in human MGC-803 cells assessed as decrease in p-cdc25c level at 1 to 4 uM by Western blot analysis; assay type: functional, cell-based; conditions: dose 1-4 µM
MGC-803 [21] = test: Induction of DNA damage in human MGC-803 cells assessed as increase in p-Chk generation incubated for 48 hrs by Western blot analysis; assay type: functional, cell-based; conditions: DDE = dose-dependent effect
HGC-27 [22] = test: Induction of apoptosis in human HGC-27 cells incubated for 48 hrs by Annexin-V FITC staining based flow cytometry analysis; assay type: functional, cell-based; conditions: dose 1-4 µM, DDE = dose-dependent effect
HGC-27 [23] = test: Inhibition of colony formation in human HGC-27 cells incubated for 24 hrs with fresh medium replacement for every two days measured for 11 days by crystal voilet staining based assay; assay type: functional, cell-based; conditions: dose 0.5-2 µM, time 11.0 day, DDE = dose-dependent effect
[24] = Toxicity in BALB/c mouse xenografted with human MGC-803 cells assessed as effect on lung at 10 to 20 mg/kg, ip administered once every two days measured after 15 days by H and E staining based assay; assay type: organism-based; conditions: in vivo, 360 h, dose 10-20 mg/kg, time 15 day
[25] = Toxicity in BALB/c mouse xenografted with human MGC-803 cells assessed as effect on heart at 10 to 20 mg/kg, ip administered once every two days measured after 15 days by H and E staining based assay; assay type: organism-based; conditions: in vivo, 360 h, dose 10-20 mg/kg, time 15 day
MGC-803 [26] = test: Induction of cell cycle arrest in human MGC-803 cells assessed as accumulation of cells at S phase at 2 uM incubated for 36 hrs by PI staining based flow cytometry analysis (reference value: 20.5%); assay type: functional
MGC-803 [27] = test: Induction of cell cycle arrest in human MGC-803 cells assessed as accumulation of cells at G2/M phase at 1 uM incubated for 36 hrs by PI staining based flow cytometry analysis (reference value: 20.5%); assay type: functional
MGC-803 [28] = test: Induction of apoptosis in human MGC-803 cells assessed as increase in cleaved caspase 9 protein expression level at 1 to 4 uM incubated for 48 hrs by Western blot analysis; assay type: functional, cell-based; conditions: dose 1-4 µM
HGC-27 [29] = test: Induction of cell cycle arrest in human HGC-27 cells assessed as accumulation of cells at G1 phase at 2 uM incubated for 36 hrs by PI staining based flow cytometry analysis (reference value: 49.6%); assay type: functional
MGC-803 [30] = test: Activation of ROS/JNK signalling in human MGC-803 cells assessed as increase in p-MKK4 level by Western blot analysis; assay type: cell-based; conditions: filed as activator, dose 1-4 µM, DDE = dose-dependent effect
HGC-27 [31] = test: Induction of cell cycle arrest in human HGC-27 cells assessed as decrease in cyclin-B1 level at 1 to 4 uM by Western blot analysis; assay type: functional, cell-based; conditions: dose 1-4 µM
MGC-803 [32] = test: Antitumor activity against human MGC-803 cells xenografted with BALB/c mouse assessed as atrophied cells at 10 to 20 mg/kg, ip administered once every two days; assay type: functional, organism-based; conditions: dose 10-20 mg/kg
MGC-803 [33] = test: Inhibition of colony formation in human MGC-803 cells incubated for 24 hrs with fresh medium replacement for every two days measured for 11 days by crystal voilet staining based assay; assay type: functional, cell-based; conditions: dose 0.5-2 µM, time 11.0 day, DDE = dose-dependent effect
MGC-803 [34] = test: Induction of DNA damage in human MGC-803 cells assessed as appearance of longer comet tail at 4 uM; assay type: functional, cell-based

`Cc1ccc(NC2=CC(=O)c3nc4n(c3C2=O)[C@H]2OC[C@@H](O)[C@H]2OC4)cc1C` showed an Activity (MGC-803 [1]) of 28.2%, an Activity (MGC-803 [2]) of 24% and an Activity (HGC-27 [3]) of 14.4%. The Activity (HGC-27 [4]) was 8.8%, the Activity (HGC-27 [5]) was “Dde” and the Activity (HGC-27 [6]) was “Active”. The Activity (MGC-803 [7]) was 29.2%, the Activity (HGC-27 [8]) was 28% and the Activity (MGC-803 [9]) was 30.8%. For the same compound, the IC50 (HeLa) was 2.69 µM, the Activity [10] was “Non-Toxic” and the Activity (HGC-27 [11]) was “Dde”. For the same compound, the Activity (HGC-27 [12]) was “Active”, the Activity [13] was “Non-Toxic” and the Activity (HGC-27 [14]) was “Active”. The Activity (HGC-27 [15]) was “Active”, the Activity (HGC-27 [16]) was “Dde” and the Activity (MGC-803 [17]) was “Active”. The IC50 (MGC-803 [18]) was 0.86 µM, the Activity (HGC-27 [19]) was 10.7% and the Activity (MGC-803 [20]) was “Active”. The Activity (MGC-803 [21]) was “Dde”, the Activity (HGC-27 [22]) was “Dde” and the inhibition (HGC-27 [23]) was “Dde”. For the same compound, the Activity [24] was “Non-Toxic”, the Activity [25] was “Non-Toxic” and the Activity (MGC-803 [26]) was 39.3%. For the same compound, the Activity (MGC-803 [27]) was 23.5%, the Activity (MGC-803 [28]) was “Active” and the Activity (HGC-27 [29]) was 33.5%. For the same compound, the Activity (MGC-803 [30]) was “Dde”, the Activity (HGC-27 [31]) was “Active” and the Activity (MGC-803 [32]) was “Active”. The inhibition (MGC-803 [33]) was “Dde” and the Activity (MGC-803 [34]) was “Active”.

Source: ChEMBL document CHEMBL5113408, “Design, synthesis and antitumour activity of novel 5(6)-amino-benzimidazolequinones containing a fused morpholine” (Eur J Med Chem, 2022)
